Measured values: US8524498B2, “Methods and compositions for homologous recombination in human cells” (The General Hospital Corporation, priority 2009, dated 2013)

Key:
hLR5 cells [1] = assay: SSEA1 cell surface marker expression by flow cytometry on hLR5 cells cultured with pathway inhibitors; type: cell-based, human; settings: flow cytometry after 1 week culture in hLR5 media with inhibitor; Jak-inhibitor I 0.6 μM, PD98059 50 μM, PD1 84352 0.8 μM, PD0325901 1 μM
Source text: (§1) FIGS. 2A-2F: LIF-responsiveness of hLR5 cells. 2A Western blot analysis of STAT3 phosphorylation in two independent hLR5 clones, with or without LIF-stimulation as indicated; 2B Immunostaining of STAT3 subcellular localization in hLR5 cells before (top panel) or after (bottom panel) LIF stimulation. Note the translocation of STAT3 from the cytoplasm (top panel) to the nucleus (bottom panel). Cell nuclei were visualized with DAPI; 2C Gene expression analysis of downstream target genes of the JAK/STAT signaling pathway in three hLR5 clones as well as human ES cell lines and conventional human iPS cell lines; 2D Flow cytometry analysis of SSEA 1 surface marker on hLR5 cells upon LIF removal. Lines indicate (i) LIF control, (ii) LIF substitution with bFGF, and (iii) no added growth factor; 2E Colony morphology of the hLR5 cells before (top panel) and after LIF substitution with bFGF; 2F Flow cytometry analysis of SSEA1 cell surface marker expression on hLR5 cells in the presence of small molecule inhibitors of the JAK/STAT and MEK/ERK signaling pathways. hLR5 cells were maintained in hLR5 media for 1 week in the presence of inhibitors. Grey shaded area: Jak-inhibitor, lines: MEK inhibitors (PD9805, PD1 84352 and PD0325901, as indicated). A line indicating a control (i.e., lacking inhibitor) is also present.
Upon removal or substitution of LIF from the hLR5 culture media, SSEA1 expression waned (FIG. 2D). In addition, a change in colony morphology was observed following LIF withdrawal (FIG. 2E). In murine ES cells, LIF activates the JAK/STAT3 and the RAS/MEK/MAPK signaling pathways, which have opposing roles in murine ES cell maintenance and differentiation. […] Specific inhibitors of JAK/STAT signaling or the MAPK/MEK signaling pathway were used to examine the relative role of these pathways in hLR5 cells. SSEA1 cell surface marker expression was examined by flow cytometry upon culture of hLR5 cells in the presence of specific inhibitors for 1 week.
Cells were collected by trypsinization and resuspended in ice-cold RPMI+0.5% FBS. Cells were incubated with the antibodies against the indicated surface antigens for 30 min at 4° C. The following antibodies were used for cell surface marker profiling: SSEA 1 (BD BIOSCIENCES™), TRA-1-81, TRA-1-60, SSEA3 and SSEA4 (MILLIPORE™). Cells were washed twice with RPMI/0.5% FBS and incubated with the relevant fluorophore-conjugated secondary antibody (BD BIOSCIENCES™) for 30 min at 4° C. Cells were washed twice with RPMI/0.5% FBS, resuspended in RPMI/0.5% FBS and analyzed on a BECTON-DICKINSON FACSCALIBUR™ cell analyzer.

hLR5 cells [2] = assay: Conversion of hLR5 cells into stable pluripotent LD-hiPS colonies; type: cell-based, human; settings: for enhancement of hLR5 conversion: titration curve of GSK3β inhibitor alone or in combination with LIF and/or PD98059, even at high concentration (not shown); for conversion frequency of hLR5 cells into LD-hiPS cells: LIF and MEK inhibitor PD98059 added during the conversion process, about 0.01% without; for increase in conversion frequency compared to FGF alone: LIF and PD98059 (50 μM) in combination; for hLR5 conversion rate: agent added alone to bFGF after doxycycline withdrawal, PD98059 50 μM
Method: FIG. 9: Conversion rate of hLR5 cells into LD-hi PS cells is influenced by growth factors and inhibition of MEK signaling. Bar graph indicates the average number of stable pluripotent LD-hiPS colonies obtained after plating of 100.000 hLR5 cells in the presence of the indicated combinations of growth factors and MEK inhibitor (PD98059, 50 μM).
FIG. 4A outlines the procedure of converting hLR5 cells into stable iPS cells. Clonal hLR5 cell lines were plated at a density of 5000 cells per cm^2 in media containing human LIF and doxycycline to support the continued expression of ectopic reprogramming factors. The next day, doxycycline was withdrawn from the hLR5 cultures and cells were further maintained in the presence of bFGF alone (FIG. 4A). […] These cells are referred to herein as hLR5-derived human iPS cells (LD-hiPS) to signify their prior hLR5 status. The conversion frequency of hLR5 cells into LD-hiPS cells was low, approximately 0.01%, yet similar to the conversion of murine metastable iPS cells of the NOD strain into stable EpiSC-like iPS cells (Hanna et al., 2009). […] Whether LIF and/or small molecule inhibitors could positively influence the conversion of hLR5 cells to a stable pluripotent state was analyzed.

[3] = test system: human pluripotent stem cells; assay: Culture of human pluripotent stem cells with pharmacological inhibitors: passaging, proliferation, colony morphology; type: cell-based; settings: for colony morphology of human pluripotent stem cells (ES cells and iPS cells): CHIR99021 (3 μM) together with PD98059 (50 μM)
Source text: FIGS. 12A-12C: Inhibition of PKA or GSK3β signaling enhances human pluripotent stem cell proliferation rate and improves the introduction of transgenes by homologous recombination. 12A. Cell proliferation curve. Cell numbers of human iPS cells were counted at the indicated time intervals. Plotted is the cumulative cell number over 37 days of culture. All cells were maintained in standard human iPS culture conditions (e.g., Maherali et al. Cell Stem Cell 2008, 3:340-345) with indicated additions: DMSO ([…], 0.1%); CHIR99021 (GSK3β inhibitor, 3 μM), Kenpaullone (GSK3β inhibitor, 5 μM); BIO (GSK3β inhibitor, 15 μM) and SB216763 (GSK3β inhibitor, 1 μM). 12B Colony morphology of human pluripotent stem cells cultured in the presence of the GSK3β inhibitor (3 μM) and PD98059 (50 μM). 12C Influence of signaling inhibitors on the introduction of a 10 kb transgene construct carrying a puromycin selection cassette. Puromycin selection was applied at 0.25 μg/mL 48 hours after electroporation of human iPS cells with 20 μg of the linearized plasmid.
It was therefore sought to explore if small molecule inhibitors can affect human pluripotent stem cell colony morphology, proliferation and the ability to introduce transgenes using homologous recombination. Human pluripotent stem cells were maintained in standard medium (DMEM/F12 containing 20% knockout serum replacement, 2 mM L-Glutamine, 1% non-essential amino acids, 100 U of penicillin, 100 μg streptomycin, 0.1 mM beta-mercaptoethanol and 5 ng/mL bFGF, with or without pharmacological inhibitors.
The inhibition of GSK3β can increase the frequency of homologous recombination in both iPS cells derived in the presence of the five reprogramming factors as described above, and in human ES cells. The human ES cells acquired a mouse ES cell-like morphology, became capable of single cell expansion, and became capable of trypsin passaging when incubated with a GSK3β inhibitor. The effect and the increase in homologous recombination could be facilitated by co-addition of MEK inhibitor(s).

[4] = test system: JAK-STAT signaling pathway; assay: LIF stimulation of hLR5 cells: JAK-STAT pathway activation (Western blot, STAT3 immunostaining, gene expression); type: cell-based, human
Source text: as §1, with “present. […]” for “present.”

O=C(NOCC1CC1)c1ccc(F)c(F)c1Nc1ccc(I)cc1Cl [PD1 84352]
expression of SSEA1 on hLR5 cells (hLR5 cells [1]): did not affect cell surface marker expression

O=C(NOC[C@H](O)CO)c1ccc(F)c(F)c1Nc1ccc(I)cc1F [PD0325901]
expression of SSEA1 on hLR5 cells (hLR5 cells [1]): did not affect cell surface marker expression

O=C1Cc2c([nH]c3ccc(Br)cc23)-c2ccccc2N1 [Kenpaullone]
enhancement of hLR5 conversion (hLR5 cells [2]): did not enhance hLR5 conversion

Cc1c[nH]c(-c2cnc(NCCNc3ccc(C#N)cn3)nc2-c2ccc(Cl)cc2Cl)n1 [CHIR99021]
colony morphology of human pluripotent stem cells (ES cells and iPS cells) [3]: adopted the characteristic tight dome-shaped morphology of murine ES cells
enhancement of hLR5 conversion (hLR5 cells [2]): did not enhance hLR5 conversion

COc1cccc(-c2cc(=O)c3ccccc3o2)c1N [PD98059]
colony morphology of human pluripotent stem cells (ES cells and iPS cells) [3]: adopted the characteristic tight dome-shaped morphology of murine ES cells
expression of SSEA1 on hLR5 cells (hLR5 cells [1]): did not affect cell surface marker expression
conversion frequency of hLR5 cells into LD-hiPS cells (hLR5 cells [2]): ~0.1%
increase in conversion frequency compared to FGF alone (hLR5 cells [2]): ~8 fold
hLR5 conversion rate (hLR5 cells [2]): slight increase

LIF: human LIF growth factor activating JAK-STAT signaling
STAT3 nuclear translocation in hLR5 cells ([4]; 15 minute stimulation with human LIF, immunofluorescence): rapid STAT3 nuclear translocation
STAT3 phosphorylation in hLR5 cells ([4]; LIF stimulation, Western blot): robustly induces STAT3 phosphorylation
conversion frequency of hLR5 cells into LD-hiPS cells (hLR5 cells [2]): ~0.1%
increase in conversion frequency compared to FGF alone (hLR5 cells [2]): ~8 fold
hLR5 conversion rate (hLR5 cells [2]): slight increase

Jak-inhibitor I
expression of SSEA1 on hLR5 cells (hLR5 cells [1]): marked decrease

C[S+](C)[O-] [DMSO]
trypsin passaging of human pluripotent stem cells ([3]; standard medium with inhibitor, DMSO 0.1%): allowed trypsin passaging
pluripotent stem cell proliferation rate ([3]; standard medium with inhibitor, DMSO 0.1%, cumulative cell number over 37 days): enhanced the pluripotent stem cell proliferation rate
